Assay results as given in US5356926A, “3-alkyloxy-, aryloxy-, or arylalkyloxy-benzo [β]thiophene-2-carboxamides as inhibitors of cell adhesion” (Warner-Lambert Company, priority 1993, dated 1994).

Test system: human neutrophil adhesion to TNFα, IL-1α, and LPS-stimulated human umbilical vein endothelial cells
Test: Inhibition of human neutrophil adhesion to stimulated HUVEC (51Cr-labeled neutrophils)
Format: cell-based
Conditions: Table 1
From the text: METHOD FOR DETERMINING THE INHIBITION OF HUMAN NEUTROPHIL ADHESION TO TNFα, IL-1α, AND LPS-STIMULATED HUMAN UMBILICAL VEIN ENDOTHELIAL CELLS BY 3-ALKYLOXY-, ARYLOXY-, OR ARYLALKYLOXY BENZO[b]THIOPHENE-2-CARBOXAMIDES
Neutrophils were isolated from anticoagulant-treated venous blood obtained from healthy human volunteers according to the method of Ferrante and Thong (J. Immunol. Methods 1978;24:389-93).
Second passage human umbilical vein endothelial cells (HUVEC) (Clonetics, San Diego, Calif.) were seeded into Falcon 24-well cell culture plates (Becton Dickinson, Lincoln Park, N.J.) at approximately 2×10^4 cells per well. The cells were grown to confluent monolayers in endothelial basal medium (EBM, Clonetics) supplemented with 5% fetal calf serum (Hyclone Laboratories, Logan, Utah), 10 ng/mL EGF, 1 μg/mL hydrocortisone, 0.4% bovine brain extract (Clonetics) in 5% CO2 at 37° C.
Neutrophils (30×10^6) were labeled for 60 minutes at 37° C. with 100 μCi Na^51 CrO4 (ICN Biomedicals, Costa Mesa, Calif.) in 2.0 mL Ca^2+ - and Mg^2+ -free Hanks' balanced salt solution (HBSS, GIBCO Laboratories, Grand Island, N.Y.). The cells were washed two times in HBSS and suspended in unsupplemented EBM.
Stimulation of HUVEC with tumor necrosis factor-α (TNFα) (Genzyme, Cambridge, Mass.) , interleukin (IL-1α) (Genzyrne) or E. coli 0111:B4 lipopolysaccharide (LPS) (Sigma) in the presence or absence of drug was initiated 4 hours prior to the addition of neutrophils. The suspension medium was unsupplemented EBM or supplemented EBM for studies with cytokines or LPS, respectively. […] Immediately prior to addition of ^51 Cr-labeled neutrophils to the HUVEC monolayers, the cultures were washed with 1 mL unsupplemented media to remove stimulus and/or drug. Neutrophils (5×10^5) were then added to the HUVEC in 0.5 mL unsupplemented media and incubated at 37° C. for 30 minutes. Nonadherent neutrophils were removed by aspiration. Following an additional wash, adherent neutrophils were lysed with 0.5 mL 1N NH4 OH overnight at 37° C. Lysates were collected and the radioactivity in each well was determined by gamma ray spectroscopy.

Structure (SMILES) | IC50 [nM]
CC(C)Oc1c(C(N)=O)sc2ccc(O)cc12 [Example 10, 5-Hydroxy-3-(1-methylethoxy)benzo[b]thiophene-2-carboxamide] | 1200

Same assay, conditions: Table 1, at 100 μM

Structure (SMILES) | inhibition at 100 µM [%]
CC(C)Oc1c(C(N)=O)sc2ccc(Cl)cc12 [Example 3, 5-Chloro-3-(1-methylethoxy)benzo[b]thiophene-2-carboxamide] | 72
Cc1ccc2sc(C(N)=O)c(OC(C)C)c2c1 [Example 4, 5-Methyl-3-(1-methylethoxy)benzo[b]thiophene-2-carboxamide] | 61
CC(C)Oc1c(C(N)=O)sc2ccc([N+](=O)[O-])cc12 [Example 5, 3-(1-Methylethoxy)-5-nitrobenzo[b]thiophene2-carboxamide] | 40
COc1cccc2c(OC(C)C)c(C(N)=O)sc12 [Example 6, 7-Methoxy-3-(1-methylethoxy)benzo[b]thiophene2-carboxamide] | 35
COc1ccc2sc(C(N)=O)c(OC)c2c1 [Example 7, 3,5-Dimethoxybenzo[b]thiophene-2-carboxamide] | 60
COc1ccc2sc(C(N)=O)c(OCc3ccccc3)c2c1 [Example 8, 5-Methoxy-3-(phenylmethoxy)benzo[b]thiophene2-carboxamide] | 57
COc1ccc2c(OC(C)C)c(C(N)=O)sc2c1 [Example 11, 6-Methoxy-3-(1-methylethoxy)benzo[b]thiophene-2-carboxamide] | 24
COc1ccc2sc(C(N)=O)c(OC(C)(C)C)c2c1 [Example 30, 3-(1,1-Dimethylethoxy)-5-methoxybenzo[b]thiophene2-carboxamide] | 100
CC(C)Oc1c(C(N)=O)sc2cc(Cl)ccc12 [Example 31, 6-Chloro-3-(1-thylethoxy)benzo[b]thiophene-2-carboxamide] | 26
CC(C)Oc1c(C(N)=O)sc2ccc(N)cc12 [Example 32, 5-Amino-3-(1-methylethoxy)benzo[b]thiophene-2-carboxamide] | 49

Same assay, conditions: Table 2, at 100 μM

Structure (SMILES) | inhibition at 100 µM [%]
COc1ccc2sc(C(=O)Nc3cccc(C(=O)O)c3)c(OC(C)C)c2c1 [Example 13, 3-[[[5-Methoxy-3-(1-methylethoxy)benzo[b]thien-2-yl]carbonyl]amino]benzoic acid] | 28
CCOC(=O)c1ccccc1NC(=O)c1sc2ccc(OC)cc2c1OC(C)C [Example 14] | 32
COc1ccc2sc(C(=O)Nc3ccccc3C(=O)O)c(OC(C)C)c2c1 [Example 15, 2-[[[5-Methoxy-3-(1-methylethoxy)benzo[b]thien2-yl]carbonyl]amino]benzoic acid] | 35
COc1ccc2sc(C(=O)NCc3ccc(C(=O)O)cc3)c(OC(C)C)c2c1 [Example 16, 4-[[[5-Methoxy-3-(1-methylethoxy)benzo[b]thien-2-yl]carbonyl]aminomethyl]benzoic acid] | 47
COC(=O)Cc1ccc(NC(=O)c2sc3ccc(OC)cc3c2OC(C)C)cc1 [Example 17] | 27
COc1ccc2sc(C(=O)Nc3ccc(CC(=O)O)cc3)c(OC(C)C)c2c1 [Example 18, 4-[[[5-Methoxy-3-(1-methylethoxy)benzo[b]thien2-yl]carbonyl]amino]benzeneacetic acid] | 32
COC(=O)Cc1cccc(NC(=O)c2sc3ccc(OC)cc3c2OC(C)C)c1 [Example 19, Methyl 3-[[[5-Methoxy-3-(1-methylethoxy)benzo[b]thien-2-yl]carbonyl]amino]benzeneacetate] | 45
COc1ccc2sc(C(=O)Nc3cccc(CC(=O)O)c3)c(OC(C)C)c2c1 [Example 20, 3-[[[5-Methoxy-3-(1-methylethoxy)benzo[b]thien-2-yl]carbonyl]amino]benzeneacetic acid] | 70
COC(=O)CCCCNC(=O)c1sc2ccc(OC)cc2c1OC(C)C [Example 21, Methyl 5-[[[5-methoxy-3-(1-methylethoxy)benzo[b]thien2-yl]carbonyl]amino]pentanoate] | 8
COc1ccc2sc(C(=O)NCCCCC(=O)O)c(OC(C)C)c2c1 [Example 22, 5-[[[5-Methoxy-3-(1-methylethoxy)benzo[b]thien2-yl]carbonyl]amino]pentanoicacid] | 9
COc1ccc2sc(C(=O)Nc3ccsc3C(=O)O)c(OC(C)C)c2c1 [Example 23] | 20
CNC(=O)c1sc2ccc(OC)cc2c1OC(C)C [Example 24] | 78
CCNC(=O)c1sc2ccc(OC)cc2c1OC(C)C [Example 25] | 64
COc1ccc2sc(C(=O)Nc3ccccc3)c(OC(C)C)c2c1 [Example 26, 5-Methoxy-3-(1-methylethoxy)-N-phenylbenzo[b]thiophene-2-carboxaraide] | 12
COc1ccc2sc(C(=O)NCc3ccccc3)c(OC(C)C)c2c1 [Example 27, 5-Methoxy-3-(1-methylethoxy)-N-(phenylmethyl)benzo[b]thiophene-2-carboxamide] | 35
COC(=O)CCCNC(=O)c1sc2ccc(OC)cc2c1OC(C)C [Example 33, Methyl 4-[[[5-methoxy-3-(1-methylethoxy)benzo[b]thien-2-yl]carbonyl]amino]butanoate] | 100
COc1ccc2sc(C(=O)NCCCC(=O)O)c(OC(C)C)c2c1 [Example 34, 4-[[[5-Methoxy-3-(1-methylethoxy)benzo[b]thien-2-yl]carbonyl]amino]butanoicacid] | 35
COc1ccc2sc(C(=O)NC(C)C)c(OC(C)C)c2c1 [Example 35, 5-Methoxy-3-(1-methylethoxy)-N-(1-methylethyl)benzo[b]thiophene-2-carboxamide] | 100

Same assay, conditions: Table 3, at 100 μM

Structure (SMILES) | inhibition at 100 µM [%]
COc1ccc2c(c1)C(OC(C)C)=C(C(N)=O)S2(=O)=O [Example 29, 5-Methoxy-3-(1-methylethoxy)benzo[b]thiophene2-carboxamide 1,1'-dioxide] | 4
